Reference: patent US20250108048A1, “STING AGONIST COMPOUNDS AND CONJUGATES” (SUTRO BIOPHARMA, INC., priority 2023, published 2025)
pEC50, pKd: −log10 of the molar value. Read-outs that look alike come from different tables or passages of the source.

Columns and labels:
hSTING-R232 = target: T1, hSTING-R232 (Homo sapiens, UniProt Q86WV6, H232R); assay: THP1-Dual KI-hSTING-R232 reporter assay (IRF pathway, secreted Lucia luciferase); format: cell-based; settings: THP1-Dual KI-hSTING-R232 cells, 24 hours; read-out: Reporter assay EC50 (nM) THP-1-R232
T1 construct: host or cells: THP1-Dual KI-hSTING-R232 (from THP1-Dual KO-STING)
T1 sequence (Q86WV6 whole entry H232R): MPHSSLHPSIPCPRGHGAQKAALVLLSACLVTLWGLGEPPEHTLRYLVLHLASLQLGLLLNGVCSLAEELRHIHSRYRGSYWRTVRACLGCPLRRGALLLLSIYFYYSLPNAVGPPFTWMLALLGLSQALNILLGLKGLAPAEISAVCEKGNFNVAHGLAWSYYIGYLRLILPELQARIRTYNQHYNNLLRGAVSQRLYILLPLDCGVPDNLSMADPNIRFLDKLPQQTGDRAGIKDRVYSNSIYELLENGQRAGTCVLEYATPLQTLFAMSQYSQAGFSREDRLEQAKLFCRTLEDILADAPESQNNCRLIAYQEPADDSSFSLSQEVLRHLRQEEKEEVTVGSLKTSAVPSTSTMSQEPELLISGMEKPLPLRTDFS

hSTING WT = hSTING WT (Homo sapiens, UniProt Q86WV6); assay: Surface plasmon resonance, hSTING WT; format: binding; settings: read-out: hSTING WT SPR (Kd)
Chain of hSTING WT (Q86WV6 whole entry H232R): as above

mSTING = target: T2, mSTING (Mus musculus, UniProt Q3TBT3); assay: THP1-Dual KI-mSTING reporter assay; format: cell-based; parameters: host or cells: THP1-Dual KI-mSTING (from THP1-Dual KO-STING); settings: THP1-Dual KI-mSTING cells, 24 hours; read-out: Reporter assay EC50 (nM) THP-1 mSTING
T2 sequence (Q3TBT3 1-378): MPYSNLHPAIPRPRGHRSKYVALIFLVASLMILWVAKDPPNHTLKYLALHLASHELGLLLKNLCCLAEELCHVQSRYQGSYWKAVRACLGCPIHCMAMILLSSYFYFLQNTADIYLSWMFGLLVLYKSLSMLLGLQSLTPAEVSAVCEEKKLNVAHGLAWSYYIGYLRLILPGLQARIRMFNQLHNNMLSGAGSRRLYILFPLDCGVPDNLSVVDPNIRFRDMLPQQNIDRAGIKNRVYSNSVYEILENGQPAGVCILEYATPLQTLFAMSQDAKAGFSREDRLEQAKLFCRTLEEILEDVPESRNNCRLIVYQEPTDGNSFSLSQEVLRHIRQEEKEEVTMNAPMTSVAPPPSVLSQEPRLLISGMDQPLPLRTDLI
Procedure: The activities of the STING agonists to activate human or mouse STING pathways were evaluated in THP-1-Dual™, THP1-Dual™ KI-hSTING-R232, THP1-Dual™ KI-hSTING-H232 Cells and THP1-Dual™ KI-mSTING Cells. THP-1-Dual™ cells contains hSTING-HAQ haplotype and can be used to evaluate the activity of STING agonists by monitoring the activation of NF-κB pathway and the […] (IFN regulatory factor) pathways. THP1-Dual™ KO-STING cells were generated from THP1-Dual™ cells by stable knockout of the endogenous HAQ STING gene. THP1-Dual™ KI-hSTING-R232 cells, THP1-Dual™ KI-hSTING-H232 cells and THP1-Dual™ KI-mSTING cells were generated by transfecting THP1-Dual™ KO-STING cells with hSTING-R232 or hSTING-H232 or mSTING. Stimulating these reporter cells with a STING agonist activates TRF pathway and induces the production of a secreted Lucia luciferase in the cell culture medium, which can be determined using QUANTI-Luc™ reagent.
THP-1-Dual™, THP1-Dual™ KI-hSTING-R232, THP1-Dual™ KI-hSTING-H232 and THP1-Dual™ KI-mSTING reporter cells were purchased from Invivogen and maintained in manufacture recommended culture medium with required supplemental antibiotics. On the day of assay, the cells were harvested with Accutase and counted by the Vi-CELL Cell Viability Analyzers. Cells were resuspended in HEK blue detection medium and a total of 10000 cells were seeded in each well of a 384-well flat bottom plate. Serial dilutions of STING agonists free drugs (1:3 serial dilution starting from 5 uM) was added into treatment wells. After incubation at 37° C. in a CO2 incubator for 24 hours, 20 μl of cell culture medium per well was transferred into a 384-well white (opaque) plate. 50 μl of QUANTI-Luc™ assay solution was then added to each well and the plate was immediately transferred to an ENVISION® plate reader to measure luminescence (Perkin-Elmer). Relative luminescence readings were converted to fold change of signal using untreated cells as controls. Data was fitted with non-linear regression analysis, using log (agonist) vs. response, variable slope, 4-parameter fit equation using GraphPad Prism. Data was expressed as fold change in signal vs. dose of STING agonist in nM with error bars indicating the Standard Deviation (SD) of the quadruplicates. There result was reported in Table 2 as EC50 (the midpoint of the curve, or concentration at which […] of the maximum effect was observed).

hSTING-HAQ haplotype = target: T3, hSTING-HAQ haplotype (Homo sapiens, UniProt Q86WV6, G230A/H232R/R293Q/R71H); assay: THP-1-Dual reporter assay (endogenous hSTING-HAQ); format: cell-based; settings: THP-1-Dual cells (hSTING-HAQ), 24 hours
T3 construct: host or cells: THP-1-Dual
T3 sequence (Q86WV6 whole entry R71H/G230A/H232R/R293Q): as the sequence (Q86WV6 whole entry H232R) above, with R71H, G230A, R293Q counted along it

[1] = test system: TROP2 positive NCI-H292 Cells; assay: Cytokine release from cancer cells (MSD); format: cell-based, human; settings: 120 hours; for pEC50: Homo sapiens
Procedure: The cell supernatant was collected and IP-10 and IL-6 released in the cell culture medium was measured using Streptavidin single spot 96 well plates, compatible human antibody pairs, and calibrating solutions commercially available from MesoScale Discovery. Raw data generated by the Meso Scale Discovery (MSD®) SQ120 plate reader was imported into MSD Discovery Workbench software. Unknown sample values were interpolated from standard curves by the software and imported into Graphpad Prism. Each cytokine level was fitted with non-linear regression analysis, using log (agonist) vs. response, variable slope, 4-parameter fit equation in GraphPad Prism.

hSTING H232 = hSTING H232 (Homo sapiens, UniProt Q86WV6); assay: Surface plasmon resonance, hSTING H232; format: binding; settings: read-out: hSTING H232 SPR (Kd)
Chain of hSTING H232 (Q86WV6 whole entry): as the sequence (Q86WV6 whole entry H232R) above, with R232H counted along it

- EC50 (hSTING-R232): 50 to 150 nM
- pKd (hSTING WT): ≥ 7.70
- EC50 (mSTING): > 150 nM
- EC50 (hSTING-HAQ haplotype): 50 to 150 nM
- pEC50 ([1]; read-out: IL-6 Release EC50): < 7.00
- pEC50 ([1]; read-out: IP-10 Release EC50): < 7.00
- pKd (hSTING H232): ≥ 7.70
Structure (SMILES): CCn1nc(C)cc1C(=O)Nc1nc2cc(C(N)=O)cc(OC)c2n1C/C=C/Cn1c(NC(=O)c2cc(C)nn2CC)nc2cc(C(N)=O)cc(OCCCN3CCC(c4nnc5n4CCNC5)CC3)c21 [Compound 4, 1-[(E)-4-[5-carbamoyl-2-[(2-ethyl-5-methyl-pyrazole-3-carbonyl)amino]-7-[3-[4-(5,6,7,8-tetrahydro-[1,2,4]triazolo[4,3-a]pyrazin-3-yl)-1-piperidyl]propoxy]benzimidazol-1-yl]but-2-enyl]-2-[(2-ethyl-5-methyl-pyrazole-3-carbonyl)amino]-7-methoxy-benzimidazole-5-carboxamide; 2,2,2-trifluoroacetic acid]
- IL-6 Release Span [1]: >8000 pg/mL
- IP-10 Release Span [1]: >4000 pg/mL
